These results are taken from patent US20070049593A1 (priority 2004, published 2007).

Structures can show the parent of a compound that is named as a salt.

As a reminder, the IC50 is the concentration needed to halve the response being measured.

The target in this assay is T1, HCV polymerase (Hepatitis C virus genotype 1b, UniProt P26663).
T1 construct: a region encoding NS5B (J Virol 1991 March, 65(3), 1105-13, 544 amino acids after deletion of 47 amino acids on the C-terminal); 6xHis (C); made in house; host or cells: Escherichia coli
The assay can be described thus: biochemical. Also on record: species or system HCV BK strain. The method, boiled down: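 His-tagged NS5B (BK strain, 47-aa C-terminal deletion, E. coli-expressed) at 0.5 μg/ml copied 5 μg/ml run-off RNA bearing the HCV 3′ UTR with 2 μM UTP plus [3H]UTP, 50 μM ATP/GTP, in pH 7.5 Tris with 5 mM MgCl2, 25 °C, 90 min. TCA-precipitated RNA was counted and IC50 calculated.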

T1 sequence (P26663 2420-2963): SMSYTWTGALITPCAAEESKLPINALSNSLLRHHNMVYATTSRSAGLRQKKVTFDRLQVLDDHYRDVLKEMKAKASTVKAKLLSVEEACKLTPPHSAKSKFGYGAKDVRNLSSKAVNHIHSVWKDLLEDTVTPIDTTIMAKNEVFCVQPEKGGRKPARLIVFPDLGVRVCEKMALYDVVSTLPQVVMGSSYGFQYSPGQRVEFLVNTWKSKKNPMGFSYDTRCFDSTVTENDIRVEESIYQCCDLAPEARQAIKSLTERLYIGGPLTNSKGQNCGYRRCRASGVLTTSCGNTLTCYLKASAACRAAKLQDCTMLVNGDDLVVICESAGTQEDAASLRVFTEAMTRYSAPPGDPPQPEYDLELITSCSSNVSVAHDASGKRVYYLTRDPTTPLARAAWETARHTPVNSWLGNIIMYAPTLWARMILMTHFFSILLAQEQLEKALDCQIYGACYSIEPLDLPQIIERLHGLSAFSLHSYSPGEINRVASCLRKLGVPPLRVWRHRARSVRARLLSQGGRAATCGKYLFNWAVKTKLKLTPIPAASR

As to `CCN1CCN(C(=O)CN2CCn3c(c(C4CCCCC4)c4ccc(C(=O)O)cc43)-c3ccc(Cl)cc32)CC1` [Example 1-76, 3-chloro-13-cyclohexyl-5-[2-(4-ethylpiperazin-1-yl)-2-oxoethyl]-6,7-dihydro-5H-benzo[5,6][1,4]diazepino[7,1-a]indole-10-carboxylic acid dihydrochloride], the IC50 was less than 100 nM.

`COCc1cccc(-c2cccc3c2OCCn2c-3c(C3CCCCC3)c3ccc(C(=O)O)cc32)c1` [Example 2-323, 12-cyclohexyl-4-(3-methoxymethylphenyl)-6,7-dihydro-5-oxa-7a-azadibenzo[a,e]azulene-9-carboxylic acid] had an IC50 of less than 100 nM.

`CC(C)(C)OC(=O)NCCOc1ccc2c(c1)OCCn1c-2c(C2CCCCC2)c2ccc(C(=O)O)cc21` [Example 2-33, 3-[2-(tert-butoxycarbonylamino)ethoxy]-12-cyclohexyl-6,7-dihydro-5-oxa-7a-azadibenzo[a,e]azulene-9-carboxylic acid]: the IC50 is less than 100 nM.

In the case of `CSc1ccc2c(c1)N(CCN1CCCCC1)CCn1c-2c(C2CCCCC2)c2ccc(C(=O)O)cc21` [Example 1-179, 13-cyclohexyl-3-methylsulfanyl-5-[2-(piperidin-1-yl)ethyl]-6,7-dihydro-5H-benzo[5,6][1,4]diazepino[7,1-a]indole-10-carboxylic acid dihydrochloride], the IC50 was less than 100 nM.

In turn, `CNC(=O)[C@H](Cc1ccc(O)cc1)NC(=O)c1ccc2c(C3CCCCC3)c3n(c2c1)CCOc1cc(OC)ccc1-3` [Example 2-263, N—[(S)-2-(4-hydroxyphenyl)-1-(methylcarbamoyl)ethyl]-12-cyclohexyl-3-methoxy-6,7-dihydro-5-oxa-7a-azadibenzo[a,e]azulene-9-carboxamide] returned an IC50 of less than 100 nM.

As to `COc1ccc2c(c1)OCCn1c-2c(C2CCCCC2)c2ccc(C(=O)NC3(C(=O)Nc4ccc(C(C)(C)C(=O)O)cc4)CCC3)cc21` [Example 2-406, 2-[4-({1-[(12-cyclohexyl-3-methoxy-6,7-dihydro-5-oxa-7a-azadibenzo[a,e]azulene-9-carbonyl)amino]cyclobutanecarbonyl}amino)phenyl]-2-methylpropionic acid], the IC50 was less than 100 nM.

`Cc1cccc(COc2ccc3c(c2)N(CCN(C)C)CCn2c-3c(C3CCCCC3)c3ccc(C(=O)O)cc32)n1` [Example 1-589, 13-cyclohexyl-5-(2-dimethylaminoethyl)-3-(6-methylpyridin-2-ylmethoxy)-6,7-dihydro-5H-benzo[5,6][1,4]diazepino[7,1-a]indole-10-carboxylic acid trihydrochloride] showed an IC50 of less than 100 nM.

Consider `O=C(O)c1ccc2c(C3CCCCC3)c3n(c2c1)CCOc1c(OCc2ccccc2)cccc1-3` [Example 2-39, 4-benzyloxy-12-cyclohexyl-6,7-dihydro-5-oxa-7a-azadibenzo[a,e]azulene-9-carboxylic acid], for which the IC50 was less than 100 nM.

The compound `CCOc1ccc2c(c1)N(C)CCn1c-2c(C2CCCCC2)c2ccc(C(=O)NC3(C(=O)Nc4ccc(C=CC(=O)O)c(Cl)c4)CCC3)cc21` [Example 1-623, (E)-3-[2-chloro-4-({1-[(13-cyclohexyl-3-ethoxy-5-methyl-6,7-dihydro-5H-benzo[5,6][1,4]diazepino[7,1-a]indole-10-carbonyl)amino]cyclobutanecarbonyl}amino)phenyl]acrylic acid] gave an IC50 of less than 100 nM.

Consider `O=C(O)c1ccc2c(C3CCCCC3)c3n(c2c1)CCOc1cc(OCc2cc(N4CCCC4=O)ccc2N2CCOCC2)ccc1-3` [Example 2-5, 12-cyclohexyl-3-[2-(morpholin-4-yl)-5-(2-oxopyrrolidin-1-yl)benzyloxy]-6,7-dihydro-5-oxa-7a-azadibenzo[a,e]azulene-9-carboxylic acid monohydrochloride], for which the IC50 is less than 100 nM.

In turn, `COc1ccc2c(c1)OCCn1c-2c(C2CCCCC2)c2ccc(C(=O)NC3(c4nc5ccc(C(=O)O)cc5[nH]4)CCOCC3)cc21` [Example 2-409, 2-{4-[(12-cyclohexyl-3-methoxy-6,7-dihydro-5-oxa-7a-azadibenzo[a,e]azulene-9-carbonyl)amino]tetrahydropyran-4-yl]-3H-benzimidazole-5-carboxylic acid] registered an IC50 of less than 100 nM.

Compound `Cc1nc(C(C)(C)NC(=O)c2ccc3c(C4CCCCC4)c4n(c3c2)CCOc2ccccc2-4)[nH]c1C(=O)O` [Example 2-227, 2-{1-[(12-cyclohexyl-6,7-dihydro-5-oxa-7a-azadibenzo[a,e]azulene-9-carbonyl)amino]-1-methylethyl}-5-methyl-3H-imidazole-4-carboxylic acid] yielded an IC50 of less than 100 nM.

The compound `COc1ccc2c(c1)OCCn1c-2c(C2CCCCC2)c2ccc(C(=O)NC3(c4nc5cc(OCC(=O)O)ccc5[nH]4)CCC3)cc21` [Example 2-455, (2-{1-[(12-cyclohexyl-3-methoxy-6,7-dihydro-5-oxa-7a-azadibenzo[a,e]azulene-9-carbonyl)amino]cyclobutyl}-1H-benzimidazol-5-yloxy)acetic acid] yielded an IC50 of less than 100 nM.

`CC(C)N1CCCC(CCN2CCn3c(c(C4CCCCC4)c4ccc(C(=O)O)cc43)-c3ccccc32)C1` (centres unmarked) [Example 1-202, 13-cyclohexyl-5-[2-(1-isopropylpiperidin-3-yl)ethyl]-6,7-dihydro-5H-benzo[5,6][1,4]diazepino[7,1-a]indole-10-carboxylic acid dihydrochloride]: the IC50 was less than 100 nM.

`Cc1ccc2c(c1)-c1c(C3CCCCC3)c3ccc(C(=O)O)cc3n1CCN2CCN1CCCCC1` [Example 1-191, 13-cyclohexyl-2-methyl-5-[2-(piperidin-1-yl)ethyl]-6,7-dihydro-5H-benzo[5,6][1,4]diazepino[7,1-a]indole-10-carboxylic acid dihydrochloride]: the IC50 lay in the range of 100 to 1000 nM.

Compound `CCOc1ccc2c(c1)N(C)CCn1c-2c(C2CCCCC2)c2ccc(C(=O)O)cc21` [Example 1-592, 13-cyclohexyl-3-ethoxy-5-methyl-6,7-dihydro-5H-benzo[5,6][1,4]diazepino[7,1-a]indole-10-carboxylic acid] gave an IC50 of less than 100 nM.

In the case of `O=C1Cn2c(c(C3CCCCC3)c3ccc(C(=O)O)cc32)-c2ccccc2N1` [Example 1-24, 13-cyclohexyl-6-oxo-6,7-dihydro-5H-benzo[5,6][1,4]diazepino[7,1-a]indole-10-carboxylic acid], the IC50 was less than 100 nM.

Compound `CC(C)(NC(=O)c1ccc2c(C3CCCCC3)c3n(c2c1)CCOc1ccccc1-3)c1nc2ccccc2[nH]1` [Example 2-198, N-[1-(1H-benzimidazol-2-yl)-1-methylethyl]-12-cyclohexyl-6,7-dihydro-5-oxa-7a-azadibenzo[a,e]azulene-9-carboxamide] yielded an IC50 of less than 100 nM.

In turn, `O=C(O)c1ccc2c(C3CCCCC3)c3n(c2c1)CCN(CC(=O)N1CCCOCC1)c1ccccc1-3` [Example 1-49, 13-cyclohexyl-5-[2-(1,4-oxazepan-4-yl)-2-oxoethyl]-6,7-dihydro-5H-benzo[5,6][1,4]diazepino[7,1-a]indole-10-carboxylic acid monohydrochloride] showed an IC50 of less than 100 nM.

For the compound `COc1ccc2c(c1)OCCn1c-2c(C2CCCCC2)c2ccc(C(=O)NC(C)(C)c3ccc(/C=C/C(=O)O)cc3)cc21` [Example 2-422, (E)-3-(4-{1-[(12-cyclohexyl-3-methoxy-6,7-dihydro-5-oxa-7a-azadibenzo[a,e]azulene-9-carbonyl)amino]-1-methylethyl}phenyl)acrylic acid], the IC50 was less than 100 nM.

`COc1ccc2c(c1)OCCn1c-2c(C2CCCCC2)c2ccc(C(=O)NC3(C(=O)Nc4ccc(C(=O)O)cc4)CCN(C)CC3)cc21` [Example 2-397, 4-([4-[(12-cyclohexyl-3-methoxy-6,7-dihydro-5-oxa-7a-azadibenzo[a,e]azulene-9-carbonyl)amino]-1-methylpiperidine-4-carbonyl)amino)benzoic acid] yielded an IC50 of less than 100 nM.

`O=C(O)c1ccc2c(C3CCCCC3)c3n(c2c1)CCOc1cc(Oc2ccccc2)ccc1-3` [Example 2-20, 12-cyclohexyl-3-phenoxy-6,7-dihydro-5-oxa-7a-azadibenzo[a,e]azulene-9-carboxylic acid] had an IC50 of less than 100 nM.

Take `CN(C)C1CCN(C(=O)CN2CCn3c(c(C4CCCCC4)c4ccc(C(=O)O)cc43)-c3ccccc32)CC1` [Example 1-43, 13-cyclohexyl-5-[2-(4-dimethylaminopiperidin-1-yl)-2-oxoethyl]-6,7-dihydro-5H-benzo[5,6][1,4]diazepino[7,1-a]indole-10-carboxylic acid dihydrochloride]: the IC50 was less than 100 nM.

`O=C(O)c1ccc2c(C3CCCCC3)c3n(c2c1)CCN(CC(=O)N1CCOCC1)c1cc(Cl)ccc1-3` [Example 1-60, 3-chloro-13-cyclohexyl-5-[2-(morpholin-4-yl)-2-oxoethyl]-6,7-dihydro-5H-benzo[5,6][1,4]diazepino[7,1-a]indole-10-carboxylic acid monohydrochloride] came in with an IC50 of less than 100 nM.

`COC(=O)Nc1ccc(C[C@H](NC(=O)c2ccc3c(C4CCCCC4)c4n(c3c2)CCOc2cc(OC)ccc2-4)C(=O)O)cc1` [Example 2-364, (S)-2-[(12-cyclohexyl-3-methoxy-6,7-dihydro-5-oxa-7a-azadibenzo[a,e]azulene-9-carbonyl)amino]-3-(4-methoxycarbonylaminophenyl)propionic acid] registered an IC50 of less than 100 nM.

Consider `CC(C)(NC(=O)c1ccc2c(C3CCCCC3)c3n(c2c1)CCOc1ccccc1-3)C(=O)N1CCN(c2ccccc2)CC1` [Example 2-291, N-[1,1-dimethyl-2-oxo-2-(4-phenylpiperazin-1-yl)ethyl]-12-cyclohexyl-6,7-dihydro-5-oxa-7a-azadibenzo[a,e]azulene-9-carboxamide], for which the IC50 was less than 100 nM.
